The subject of series [1] is Mus musculus. As to the kind of experiment: Anti-diabetic activity in high-fat diet-induced obesity model of male C57BL/6J mouse assessed as decrease in plasma insulin at 25 mg/kg, ip administered twice daily. The series is classed as functional, organism-based.
Series [2] in a line: Toxicity in high-fat diet-induced obesity model of male C57BL/6J mouse assessed as reduction in body fat at 25 mg/kg, ip administered twice daily. The note with it: in vivo. The series is classed as organism-based. On the set-up: scale not given: the % may be the effect or the level left.
Series [3] has as its system Mus musculus. In words: Antiobesity activity in high-fat diet-induced obesity model of male C57BL/6J mouse assessed as increase in liver mass at 5 to 25 mg/kg, ip administered twice daily. The note with it: dose 5-25 mg/kg. The series is classed as functional, organism-based.
Series [4] relates to Mus musculus. As to the kind of experiment: Protection against sciatic nerve denervation-induced muscular atrophy in male C57BL/6 mouse assessed as decrease in muscle wasting in gastrocnemius muscle at 75 mg/kg, ip administered twice daily. The series is classed as functional, organism-based.
In series [5] the target is T1, Ubiquitin carboxyl-terminal hydrolase 19 (Homo sapiens, UniProt O94966).
T1 sequence (O94966 whole entry): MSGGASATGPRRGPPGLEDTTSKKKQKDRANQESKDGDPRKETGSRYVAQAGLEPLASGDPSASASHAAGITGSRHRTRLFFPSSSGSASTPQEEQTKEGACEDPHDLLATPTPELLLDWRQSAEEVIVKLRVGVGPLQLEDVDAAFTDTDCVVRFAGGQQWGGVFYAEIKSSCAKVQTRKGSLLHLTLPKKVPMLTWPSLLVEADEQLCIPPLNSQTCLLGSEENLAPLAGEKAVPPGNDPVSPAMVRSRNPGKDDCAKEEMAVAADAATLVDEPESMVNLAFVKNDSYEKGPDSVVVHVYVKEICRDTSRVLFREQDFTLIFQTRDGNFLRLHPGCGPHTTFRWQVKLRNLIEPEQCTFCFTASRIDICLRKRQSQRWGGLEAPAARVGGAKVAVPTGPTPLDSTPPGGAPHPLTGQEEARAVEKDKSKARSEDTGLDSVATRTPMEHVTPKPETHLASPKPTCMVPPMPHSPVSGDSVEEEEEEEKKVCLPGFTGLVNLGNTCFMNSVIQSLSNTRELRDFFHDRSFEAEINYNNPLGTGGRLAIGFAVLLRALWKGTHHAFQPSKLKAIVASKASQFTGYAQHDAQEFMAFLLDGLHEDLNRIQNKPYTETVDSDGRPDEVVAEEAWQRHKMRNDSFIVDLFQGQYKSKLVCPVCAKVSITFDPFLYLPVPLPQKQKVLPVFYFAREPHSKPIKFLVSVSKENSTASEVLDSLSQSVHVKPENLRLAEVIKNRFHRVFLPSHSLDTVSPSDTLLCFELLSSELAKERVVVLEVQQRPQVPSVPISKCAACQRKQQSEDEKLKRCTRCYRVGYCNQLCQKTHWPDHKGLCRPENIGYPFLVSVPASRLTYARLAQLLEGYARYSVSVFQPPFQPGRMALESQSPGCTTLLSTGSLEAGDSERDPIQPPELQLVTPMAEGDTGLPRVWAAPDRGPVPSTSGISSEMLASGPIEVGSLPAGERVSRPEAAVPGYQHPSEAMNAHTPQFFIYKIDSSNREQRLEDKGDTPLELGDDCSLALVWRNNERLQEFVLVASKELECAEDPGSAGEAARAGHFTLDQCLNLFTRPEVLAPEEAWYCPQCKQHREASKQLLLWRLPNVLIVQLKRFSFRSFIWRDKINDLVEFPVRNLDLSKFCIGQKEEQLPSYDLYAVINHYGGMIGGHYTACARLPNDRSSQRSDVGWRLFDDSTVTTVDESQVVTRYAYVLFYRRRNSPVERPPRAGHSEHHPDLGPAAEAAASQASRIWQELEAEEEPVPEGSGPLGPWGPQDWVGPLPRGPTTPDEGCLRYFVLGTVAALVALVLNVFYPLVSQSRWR
In words: Inhibition of C-terminal His6-tagged recombinant human USP19 using iso-peptide ubiquitin-Lys-TAMRA as substrate incubated for 30 mins and measured after 90 mins by fluorescent polarization assay.

A short description of series [6]: Toxicity in high-fat diet-induced obesity model of male C57BL/6J mouse assessed as decrease in total ash content at 25 mg/kg, ip administered twice daily. The series is classed as organism-based. On the set-up: scale not given: the % may be the effect or the level left. The note with it: in vivo.
Series [7] deals with T1, Ubiquitin carboxyl-terminal hydrolase 19. In words: Inhibition of USP19 (unknown origin) in breast cancer cell measured by cell target engagement assay. On the set-up: species or system Breast cancer cell line.
Series [8] concerns Mus musculus. In words: Antiobesity activity in high-fat diet-induced obesity model of male C57BL/6J mouse assessed as decrease in body weight gain at 5 to 25 mg/kg, ip administered twice daily. The series is classed as functional, organism-based. The note with it: dose 5-25 mg/kg.
Series [9] has as its system Mus musculus. In words: Antiobesity activity in high-fat diet-induced obesity model of male C57BL/6J mouse assessed as reduction in epididymal fat mass at 5 to 25 mg/kg, ip administered twice daily. The series is classed as functional, organism-based. The conditions noted are these: dose 5-25 mg/kg.
The subject of series [10] is Mus musculus. In words: Anti-diabetic activity in high-fat diet-induced obesity model of male C57BL/6J mouse assessed as decrease in plasma glucose at 25 mg/kg, ip administered twice daily. The series is classed as functional, organism-based.
Series [11] relates to Mus musculus. In words: Protection against sciatic nerve denervation-induced muscular atrophy in male C57BL/6 mouse assessed as lower loss of tibialis anterior muscle at 75 mg/kg, ip administered twice daily. The series is classed as functional, organism-based.
The nature of series [12]: Toxicity in high-fat diet-induced obesity model of male C57BL/6J mouse assessed as increase in body water content at 25 mg/kg, ip administered twice daily. The series is classed as organism-based. The note with it: in vivo.
The nature of series [13]: Toxicity in high-fat diet-induced obesity model of male C57BL/6J mouse assessed as effect on total protein content at 5 mg/kg, ip administered twice daily. The series is classed as organism-based. The note with it: in vivo.
Series [14] deals with Mus musculus. As to the kind of experiment: Antiobesity activity in high-fat diet-induced obesity model of male C57BL/6J mouse assessed as reduction in lean mass at 5 to 25 mg/kg, ip administered twice daily. The series is classed as functional. On the set-up: scale not given: the % may be the effect or the level left. The conditions noted are these: dose 5-25 mg/kg.
Series [15] is described as follows: Toxicity in high-fat diet-induced obesity model of male C57BL/6J mouse assessed as decrease in total body weight at 25 mg/kg, ip administered twice daily. The conditions noted are these: in vivo. On the set-up: scale not given: the % may be the effect or the level left. The series is classed as organism-based.
Series [16] deals with T1, Ubiquitin carboxyl-terminal hydrolase 19. In words: Inhibition of USP19 (unknown origin) in neuroblastoma cell measured by cell target engagement assay. The series is classed as cell-based.
Series [17] in a line: Toxicity in high-fat diet-induced obesity model of male C57BL/6J mouse assessed as decrease in total protein content at 25 mg/kg, ip administered twice daily. The note with it: in vivo. On the set-up: scale not given: the % may be the effect or the level left. The series is classed as organism-based.
The nature of series [18]: Toxicity in high-fat diet-induced obesity model of male C57BL/6J mouse assessed as effect on body water content at 5 mg/kg, ip administered twice daily. The series is classed as organism-based. The note with it: in vivo.
Series [19] concerns Mus musculus. In words: Antiobesity activity in high-fat diet-induced obesity model of male C57BL/6J mouse assessed as reduction in fat mass at 5 to 25 mg/kg, ip administered twice daily. On the set-up: scale not given: the % may be the effect or the level left. The conditions noted are these: dose 5-25 mg/kg. The series is classed as functional.
Series [20] in a line: Inhibition of USP19 in mouse skeletal muscle cell measured by cell target engagement assay. The series is classed as cell-based.
Series [21] is described as follows: Toxicity in high-fat diet-induced obesity model of male C57BL/6J mouse assessed as decrease in total ash content at 0.1 mg/kg, sc administered twice daily. The series is classed as organism-based. On the set-up: scale not given: the % may be the effect or the level left. The conditions noted are these: in vivo.
Series [22] in a line: Toxicity in high-fat diet-induced obesity model of male C57BL/6J mouse assessed as decrease in total body weight at 0.1 mg/kg, sc administered twice daily. The series is classed as organism-based. On the set-up: scale not given: the % may be the effect or the level left. The conditions noted are these: in vivo.
Series [23] is described as follows: Toxicity in high-fat diet-induced obesity model of male C57BL/6J mouse assessed as decrease in total protein content at 0.1 mg/kg, sc administered twice daily. The conditions noted are these: in vivo. The series is classed as organism-based. On the set-up: scale not given: the % may be the effect or the level left.
Series [24] can be described thus: Toxicity in high-fat diet-induced obesity model of male C57BL/6J mouse assessed as decrease in body water content at 0.1 mg/kg, sc administered twice daily. The series is classed as organism-based. On the set-up: scale not given: the % may be the effect or the level left. The note with it: in vivo.
A short description of series [25]: Toxicity in high-fat diet-induced obesity model of male C57BL/6J mouse assessed as reduction in body fat at 0.1 mg/kg, sc administered twice daily. The series is classed as organism-based. On the set-up: scale not given: the % may be the effect or the level left. The note with it: in vivo.

pEC50, pIC50: −log10 of the molar value. Active and inactive are the calls of the source. The calls are words filed in the database; no cut-off is given here.

What is called pIC50 is the negative decadic logarithm of the IC50, by convention in mol/L. For orientation: pEC50 means the EC50 on a negative log10 scale, so that one unit is a factor of ten. As for `C[C@H](CC1CCCCC1)C(=O)N1CC[C@@](O)(Cn2cc(C(=O)N3CCNCC3)c(-c3ccccc3)cc2=O)C2(CCCC2)C1`, the result in the series with Mus musculus [1], in the series on Mus musculus [3], with Mus musculus [4], in the series with Mus musculus [8], in the series with Mus musculus [9] and in the series on Mus musculus [10] was Active. Further, in the series on Mus musculus [11], the result was Active. For the same compound, the Activity in series [2] is recorded as 24.9%; in series [6] it was -9.6%; in [12] it was 11.4%; in [13] it was “Non-Toxic”; in the series with Mus musculus [14] it was -3%; in series [15], 13%. Also, the Activity in series [17] is -7.2%; in [18] it was “Non-Toxic”; with Mus musculus [19], 24%. In series [5], the pIC50 is over 6.30. For the same compound, the pEC50 in series [7] was 8.00; in series [16], 7.48; in series [20], 7.87.

Regarding `CCCCCCCCCCCCCCCC(=O)N[C@@H](CCC(=O)NCCCC[C@H](NC(=O)[C@H](C)NC(=O)[C@H](C)NC(=O)[C@H](CCC(N)=O)NC(=O)CNC(=O)[C@H](CCC(=O)O)NC(=O)[C@H](CC(C)C)NC(=O)[C@H](Cc1ccc(O)cc1)NC(=O)[C@H](CO)NC(=O)[C@H](CO)NC(=O)[C@@H](NC(=O)[C@H](CC(=O)O)NC(=O)[C@H](CO)NC(=O)[C@@H](NC(=O)[C@H](Cc1ccccc1)NC(=O)[C@@H](NC(=O)CNC(=O)[C@H](CCC(=O)O)NC(=O)[C@H](C)NC(=O)[C@@H](N)Cc1cnc[nH]1)[C@@H](C)O)[C@@H](C)O)C(C)C)C(=O)N[C@@H](CCC(=O)O)C(=O)N[C@@H](Cc1ccccc1)C(=O)N[C@H](C(=O)N[C@@H](C)C(=O)N[C@@H](Cc1c[nH]c2ccccc12)C(=O)N[C@@H](CC(C)C)C(=O)N[C@H](C(=O)N[C@@H](CCCNC(=N)N)C(=O)NCC(=O)N[C@@H](CCCNC(=N)N)C(=O)NCC(=O)O)C(C)C)[C@@H](C)CC)C(=O)O` [LIRAGLUTIDE], the Activity in series [21] was -11.6%; in series [22] it was 13%; in series [23], -7.9%; in [24] it was -8.6%; in series [25], 17.4%.

Consider `C[C@H](CC(F)(F)F)C(=O)N1CC[C@@](O)(Cn2cc(C(=O)N3CCOCC3)c(-c3ccccc3)cc2=O)C2(CCCC2)C1`, for which the pIC50 in [5] was over 6.30.

Take `C[C@H](CC1CCCCC1)C(=O)N1CC[C@@](O)(Cn2cc(C(=O)N(C)C)c(-c3ccccc3)cc2=O)C(C)(C)C1`: in series [5], the pIC50 is over 6.30.

`C[C@H](CC(F)(F)F)C(=O)N1CC[C@@](O)(Cn2cc(C(=O)N3CCNCC3)c(-c3ccccc3)cc2=O)C2(CCCC2)C1`: the pIC50 in series [5] is over 6.30.

With `C[C@H](CC1CCCCC1)C(=O)N1CCC(O)(Cn2cnc(-c3ccccc3)cc2=O)C(C)(C)C1` (stereo not given in full), the pIC50 in [5] was over 6.30.

For the compound `C[C@H](CC(F)(F)F)C(=O)N1CC[C@@](O)(Cn2cnc(-c3cccc(F)c3)cc2=O)C2(CCCC2)C1`, the pIC50 in series [5] was over 6.30.

Consider `COC[C@H](CC1CCCCC1)C(=O)N1CC[C@@](O)(Cn2cc(C(=O)N(C)C)c(-c3ccccc3)cc2=O)C(C)(C)C1`, for which the pIC50 in [5] was over 6.30.

On to `O=C(CCc1ccccc1)N1CCC(O)(Cn2cnc(-c3ccccc3F)cc2=O)CC1`, for which, in [5], the pIC50 was at most 4.30.

For the compound `CN(C)C(=O)c1cn(C[C@]2(O)CCN(C(=O)[C@H](CO)CC(F)(F)F)CC23CCCC3)c(=O)cc1-c1ccccc1`, the pIC50 in series [5] was over 6.30.

For the compound `C[C@H](CC1CCCCC1)C(=O)N1CC[C@@](O)(Cn2cc(C(=O)N(C)C)c(C3CC3)cc2=O)C2(CCCC2)C1`, the pIC50 in series [5] was over 6.30.

`C[C@H](CC1CCCCC1)C(=O)N1CCC(O)(Cn2cnc(-c3ccsc3)cc2=O)C(C)(C)C1` (stereo not given in full): in [5], the pIC50 was over 6.30.

These data come from ChEMBL document CHEMBL5052841, “Usp19 inhibitors for use in therapy” (2020).
